Results published in ChEMBL document CHEMBL4376864, “Binding Loop Substitutions in the Cyclic Peptide SFTI-1 Generate Potent and Selective Chymase Inhibitors” (J Med Chem, 2020).
Bridge positions count the residues as written; N and C are the ends. Square brackets hold non-standard residues; d marks the D form. Peptide text beside a SMILES is read from it. * marks the point of attachment. Phe(4-NO2) = N[C@@H](Cc1ccc([N+](=O)[O-])cc1)C(=O)O; Phe(4-tBu) = CC(C)(C)c1ccc(C[C@H](N)C(=O)O)cc1; Bip = N[C@@H](Cc1ccc(-c2ccccc2)cc1)C(=O)O; pNA = O=[N+]([O-])c1ccc(N*)cc1; Nle = CCCC[C@H](N)C(=O)O

How the values were obtained:
Chymase [1] = biological target: T1, Chymase (Homo sapiens, UniProt P23946); experiment: Inhibition of recombinant human chymase expressed in Pichia pastoris X-33 cells using NleTDY-pNA as substrate assessed as cleavage of pNA at pH 7.2 and 298 K by spectrophotometry analysis
T1 sequence (P23946 whole entry): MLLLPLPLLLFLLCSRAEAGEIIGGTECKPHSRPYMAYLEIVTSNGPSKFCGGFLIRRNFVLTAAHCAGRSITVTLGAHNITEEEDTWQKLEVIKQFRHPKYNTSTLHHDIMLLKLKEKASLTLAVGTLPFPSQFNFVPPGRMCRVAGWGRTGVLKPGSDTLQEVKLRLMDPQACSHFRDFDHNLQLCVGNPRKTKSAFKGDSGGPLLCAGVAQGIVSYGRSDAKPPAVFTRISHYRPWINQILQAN

Chymase [2] = biological target: T1, Chymase; experiment: Substrate activity at recombinant human chymase expressed in Pichia pastoris X-33 cells assessed as Kcat by spectrophotometry analysis; format: ADME
Chymase [3] = biological target: T1, Chymase; experiment: Substrate activity at recombinant human chymase expressed in Pichia pastoris X-33 cells assessed as ratio of Kcat/Km by spectrophotometry analysis; format: ADME
Chymase [4] = biological target: T1, Chymase; experiment: Substrate activity at recombinant human chymase expressed in Pichia pastoris X-33 cells assessed as Km by spectrophotometry analysis; format: ADME
Chymotrypsin = Chymotrypsin (Homo sapiens, UniProt Q99895+P17538+P40313+Q6GPI1); experiment: Inhibition of human chymotrypsin using Suc-AAPF-MCA as substrate at pH 8 and 298 K measured every 60 secs for 600 secs; format: protein assay
Cathepsin G = biological target: T2, Cathepsin G (Homo sapiens, UniProt P08311); experiment: Inhibition of human cathepsin G using Suc-AAPF-MCA as substrate at pH 7.2 and 298 K measured every 60 secs for 600 secs
T2 sequence (P08311 whole entry): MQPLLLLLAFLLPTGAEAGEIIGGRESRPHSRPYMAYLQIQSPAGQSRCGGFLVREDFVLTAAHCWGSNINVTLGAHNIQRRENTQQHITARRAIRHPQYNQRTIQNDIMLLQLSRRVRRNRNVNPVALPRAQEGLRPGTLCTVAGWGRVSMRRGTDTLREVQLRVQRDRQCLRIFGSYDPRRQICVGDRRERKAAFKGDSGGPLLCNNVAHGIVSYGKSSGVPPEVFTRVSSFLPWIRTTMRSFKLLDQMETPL

Homo sapiens = species on record: Homo sapiens; experiment: Selectivity index, ratio of Ki for human cathepsin G using Suc-AAPF-MCA as substrate to Ki for recombinant human chymase expressed in Pichia pastoris X-33 cells using NleTDY-pNA as substrate
Neutrophil elastase = biological target: T3, Neutrophil elastase (Homo sapiens, UniProt P08246); experiment: Inhibition of human neutrophil elastase using MeOSuc-AAPV-MCA as substrate at pH 7.2 and 298 K measured every 60 secs for 600 secs
T3 sequence (P08246 whole entry): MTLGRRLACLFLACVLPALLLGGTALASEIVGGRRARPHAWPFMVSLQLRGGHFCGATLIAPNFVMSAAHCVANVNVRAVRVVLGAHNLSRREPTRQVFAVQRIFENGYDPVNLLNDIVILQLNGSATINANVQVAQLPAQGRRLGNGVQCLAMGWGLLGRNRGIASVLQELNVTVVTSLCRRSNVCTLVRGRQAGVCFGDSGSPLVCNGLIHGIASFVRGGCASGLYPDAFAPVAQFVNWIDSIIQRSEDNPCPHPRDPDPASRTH

[5] = Inhibition of human cationic trypsin using Boc-VPR-MCA as substrate at pH 8 and 298 K measured every 60 secs for 600 secs
Coagulation factor XII = biological target: T4, Coagulation factor XII (Homo sapiens, UniProt P00748); experiment: Inhibition of human coagulation factor 12a using Ac-QRFR-pNA as substrate at pH 8 and 298 K measured every 60 secs for 600 secs
T4 sequence (P00748 whole entry): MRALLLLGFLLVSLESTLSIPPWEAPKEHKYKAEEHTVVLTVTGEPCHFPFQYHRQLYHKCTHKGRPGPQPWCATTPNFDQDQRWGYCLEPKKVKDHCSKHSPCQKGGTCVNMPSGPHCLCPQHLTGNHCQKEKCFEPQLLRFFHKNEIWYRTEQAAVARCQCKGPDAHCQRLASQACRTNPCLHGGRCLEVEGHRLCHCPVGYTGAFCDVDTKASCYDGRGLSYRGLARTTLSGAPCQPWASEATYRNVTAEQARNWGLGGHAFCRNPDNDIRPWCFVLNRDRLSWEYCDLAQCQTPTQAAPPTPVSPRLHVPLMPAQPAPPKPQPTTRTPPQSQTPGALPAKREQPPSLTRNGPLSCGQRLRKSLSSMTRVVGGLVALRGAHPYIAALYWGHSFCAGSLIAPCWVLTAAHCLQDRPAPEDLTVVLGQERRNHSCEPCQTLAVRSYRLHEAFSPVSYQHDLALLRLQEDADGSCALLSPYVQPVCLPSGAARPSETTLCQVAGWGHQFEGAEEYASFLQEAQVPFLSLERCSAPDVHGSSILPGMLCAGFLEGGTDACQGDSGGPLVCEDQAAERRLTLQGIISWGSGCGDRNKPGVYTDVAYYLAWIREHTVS

Prothrombin = Prothrombin (Homo sapiens, UniProt P00734); experiment: Inhibition of human thrombin using Boc-VPR-MCA as substrate at pH 8 and 298 K measured every 60 secs for 600 secs
Kallikrein-7 = Kallikrein-7 (Homo sapiens, UniProt P49862); experiment: Inhibition of recombinant human KLK7 expressed in Pichia pastoris X-33 using KHLY-pNA as substrate at pH 8 and 298 K measured every 60 secs for 600 secs
Kallikrein-7, sequence (P49862 whole entry): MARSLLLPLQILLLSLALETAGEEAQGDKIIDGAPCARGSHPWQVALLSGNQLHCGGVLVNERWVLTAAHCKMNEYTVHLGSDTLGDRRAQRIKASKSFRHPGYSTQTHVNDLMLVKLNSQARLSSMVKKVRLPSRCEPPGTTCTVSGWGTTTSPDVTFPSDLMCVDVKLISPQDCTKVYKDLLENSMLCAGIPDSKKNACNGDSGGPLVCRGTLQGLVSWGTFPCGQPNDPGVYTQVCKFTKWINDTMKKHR

## CC[C@H](C)[C@@H]1NC(=O)[C@@H]2CCCN2C(=O)[C@@H]2CCCN2C(=O)[C@H]([C@@H](C)CC)NC(=O)[C@H](CO)NC(=O)[C@H](CCCCN)NC(=O)[C@H]([C@@H](C)O)NC(=O)[C@@H]2CSSC[C@H](NC1=O)C(=O)N[C@@H](Cc1ccccc1)C(=O)N1CCC[C@H]1C(=O)N[C@@H](CC(=O)O)C(=O)NCC(=O)N[C@@H](CCCNC(=N)N)C(=O)N2
Chymase [1]
  IC50: > 5000 nM

## C[C@@H](O)[C@H](NC(=O)[C@@H](N)Cc1ccccc1)C(=O)N[C@@H](CC(=O)O)C(=O)N[C@@H](Cc1ccc(O)cc1)C(=O)Nc1ccc([N+](=O)[O-])cc1 (H-FTDY-pNA)
Chymase [2]
  Kcat: 14 s⁻¹
Chymase [3]
  Kcat/Km: 3.8 ×10⁴ /M/s
Chymase [4]
  Km: 370 µM

## C[C@@H](O)[C@H](NC(=O)[C@H](CCC(=O)O)NC(=O)[C@@H](N)CCCNC(=N)N)C(=O)N[C@@H](Cc1ccc(O)cc1)C(=O)Nc1ccc([N+](=O)[O-])cc1 (H-RETY-pNA)
Chymase [2]
  Kcat: 13 s⁻¹
Chymase [3]
  Kcat/Km: 3.2 ×10⁴ /M/s
Chymase [4]
  Km: 410 µM

## C[C@@H](O)[C@H](NC(=O)[C@@H](NC(=O)[C@@H](N)CCCNC(=N)N)[C@@H](C)O)C(=O)N[C@@H](Cc1ccc(O)cc1)C(=O)Nc1ccc([N+](=O)[O-])cc1 (H-RTTY-pNA)
Chymase [2]
  Kcat: 18 s⁻¹
Chymase [3]
  Kcat/Km: 3.4 ×10⁴ /M/s
Chymase [4]
  Km: 530 µM

## CCCC[C@H](N)C(=O)N[C@H](C(=O)N[C@@H](CC(=O)O)C(=O)N[C@@H](Cc1ccc(O)cc1)C(=O)Nc1ccc([N+](=O)[O-])cc1)[C@@H](C)O (H-[Nle]TDY-pNA)
Chymase [2]
  Kcat: 22 s⁻¹
Chymase [3]
  Kcat/Km: 4 ×10⁴ /M/s
Chymase [4]
  Km: 550 µM

## CC[C@H](C)[C@@H]1NC(=O)[C@@H]2CCCN2C(=O)[C@@H]2CCCN2C(=O)[C@H](CCC(=O)O)NC(=O)[C@H](CO)NC(=O)[C@H](Cc2ccc(O)cc2)NC(=O)[C@H](C)NC(=O)[C@@H]2CSSC[C@H](NC1=O)C(=O)N[C@@H](Cc1ccccc1)C(=O)N1CCC[C@H]1C(=O)N[C@@H](CC(=O)O)C(=O)NCC(=O)N[C@@H](Cc1ccccc1)C(=O)N2 (cyclo(AYSEPPICFPDGFC); disulfide 8-14)
Chymotrypsin
  Ki: 0.42 nM
Cathepsin G
  Ki: < 0.1 nM

## CC[C@H](C)[C@@H]1NC(=O)[C@@H]2CCCN2C(=O)[C@@H]2CCCN2C(=O)[C@H](Cc2ccc(-c3ccccc3)cc2)NC(=O)[C@H](CO)NC(=O)[C@H](Cc2ccc(O)cc2)NC(=O)[C@H](C)NC(=O)[C@@H]2CSSC[C@H](NC1=O)C(=O)N[C@@H](Cc1ccccc1)C(=O)N1CCC[C@H]1C(=O)N[C@@H](CC(=O)O)C(=O)NCC(=O)N[C@@H](Cc1ccccc1)C(=O)N2 (cyclo(AYS[Bip]PPICFPDGFC); disulfide 8-14)
Chymotrypsin
  Ki: 1.5 nM
Cathepsin G
  Ki: 7.4 nM

## CC[C@H](C)[C@@H]1NC(=O)[C@@H]2CCCN2C(=O)[C@@H]2CCCN2C(=O)[C@H]([C@@H](C)CC)NC(=O)[C@H](CO)NC(=O)[C@H](Cc2ccc(O)cc2)NC(=O)[C@H](CC(=O)O)NC(=O)[C@@H]2CSSC[C@H](NC1=O)C(=O)N[C@@H](Cc1ccccc1)C(=O)N1CCC[C@H]1C(=O)N[C@@H](CC(=O)O)C(=O)NCC(=O)N[C@@H](Cc1ccccc1)C(=O)N2 (cyclo(CDYSIPPICFPDGF); disulfide 1-9)
Chymase [1]
  IC50: > 5000 nM

## CCCC[C@@H]1NC(=O)CNC(=O)[C@H](CC(=O)O)NC(=O)[C@@H]2CCCN2C(=O)[C@H](Cc2ccccc2)NC(=O)[C@@H]2CSSC[C@H](NC1=O)C(=O)N[C@@H](CC(=O)O)C(=O)N[C@@H](Cc1ccc(O)cc1)C(=O)N[C@@H](CO)C(=O)N[C@@H]([C@@H](C)CC)C(=O)N1CCC[C@H]1C(=O)N1CCC[C@H]1C(=O)N[C@@H]([C@@H](C)CC)C(=O)N2 (cyclo(CDYSIPPICFPDG[Nle]); disulfide 1-9)
Chymase [1]
  IC50: > 5000 nM

## CC[C@H](C)[C@@H]1NC(=O)[C@@H]2CCCN2C(=O)[C@@H]2CCCN2C(=O)[C@H](CCC(=O)O)NC(=O)[C@H](CO)NC(=O)[C@H](Cc2ccc(O)cc2)NC(=O)[C@H](CCC(N)=O)NC(=O)[C@@H]2CSSC[C@H](NC1=O)C(=O)N[C@@H](Cc1ccccc1)C(=O)N1CCC[C@H]1C(=O)N[C@@H](CC(=O)O)C(=O)NCC(=O)N[C@@H](CCCNC(=N)N)C(=O)N2 (cyclo(CFPDGRCQYSEPPI); disulfide 1-7)
Chymotrypsin
  Ki: 150 nM
Cathepsin G
  Ki: 0.26 nM

## N=C(N)NCCC[C@@H]1NC(=O)CNC(=O)[C@H](CC(=O)O)NC(=O)[C@@H]2CCCN2C(=O)[C@H](Cc2ccccc2)NC(=O)[C@@H]2CSSC[C@H](NC1=O)C(=O)N[C@@H](CCC(N)=O)C(=O)N[C@@H](Cc1ccc([N+](=O)[O-])cc1)C(=O)N[C@@H](CO)C(=O)N[C@@H](CCC(=O)O)C(=O)N1CCC[C@H]1C(=O)N1CCC[C@H]1C(=O)N[C@@H](CCC(=O)O)C(=O)N2 (cyclo(CFPDGRCQ[Phe(4-NO2)]SEPPE); disulfide 1-7)
Homo sapiens
  Ratio Ki: 96
Neutrophil elastase
  IC50: > 10000 nM
[5]
  IC50: > 10000 nM
Chymase [1]
  Ki: 54 nM
Coagulation factor XII
  IC50: > 10000 nM
Chymotrypsin
  Ki: 920 nM
Prothrombin
  IC50: > 10000 nM
Kallikrein-7
  IC50: > 10000 nM
Cathepsin G
  Ki: 5200 nM

## CC(C)(C)c1ccc(C[C@@H]2NC(=O)[C@H](CCC(N)=O)NC(=O)[C@@H]3CSSC[C@H](NC(=O)[C@H](CCC(=O)O)NC(=O)[C@@H]4CCCN4C(=O)[C@@H]4CCCN4C(=O)[C@H](CCC(=O)O)NC(=O)[C@H](CO)NC2=O)C(=O)N[C@@H](Cc2ccccc2)C(=O)N2CCC[C@H]2C(=O)N[C@@H](CC(=O)O)C(=O)NCC(=O)N[C@@H](CCCNC(=N)N)C(=O)N3)cc1 (cyclo(CFPDGRCQ[Phe(4-tBu)]SEPPE); disulfide 1-7)
Chymase [1]
  IC50: > 10000 nM

## C[C@@H](O)[C@@H]1NC(=O)[C@@H]2CSSC[C@H](NC(=O)[C@H](CCC(=O)O)NC(=O)[C@@H]3CCCN3C(=O)[C@@H]3CCCN3C(=O)[C@H](CCC(=O)O)NC(=O)[C@H](CO)NC(=O)[C@H](Cc3ccc(O)cc3)NC1=O)C(=O)N[C@@H](Cc1ccccc1)C(=O)N1CCC[C@H]1C(=O)N[C@@H](CC(=O)O)C(=O)NCC(=O)N[C@@H](CCCNC(=N)N)C(=O)N2 (cyclo(CFPDGRCTYSEPPE); disulfide 1-7)
Chymotrypsin
  Ki: 11 nM
Cathepsin G
  Ki: 14 nM

## CC[C@H](C)[C@@H]1NC(=O)[C@@H]2CCCN2C(=O)[C@@H]2CCCN2C(=O)[C@H](CCC(=O)O)NC(=O)[C@H](CO)NC(=O)[C@H](Cc2ccc(O)cc2)NC(=O)[C@H]([C@@H](C)O)NC(=O)[C@@H]2CSSC[C@H](NC1=O)C(=O)N[C@@H](Cc1ccccc1)C(=O)N1CCC[C@H]1C(=O)N[C@@H](CC(=O)O)C(=O)NCC(=O)N[C@@H](CCCNC(=N)N)C(=O)N2 (cyclo(CFPDGRCTYSEPPI); disulfide 1-7)
Chymotrypsin
  Ki: 0.88 nM
Cathepsin G
  Ki: 8.2 nM
